Source: ChEMBL document CHEMBL1201862, “PubChem BioAssay data set” (2004)
Activity calls are given as the source filed them.

Columns and labels:
[1] = alpha-synuclein stem-loop luciferase translation blockers – H4 neuroglioma cells, luminescence, confirmation (AID 1988); assay type: functional, cell-based
[2] = Luminescence Cell-Based Dose Response HTS to Identify Inhibitors of 5'UTR Stem-Loop Driven Prion Protein mRNA Translation in H4 Neuroglioblastoma Cells. [Related pubchem assays: 1827 (Project Summary), 1813 (Primary HTS)]; assay type: functional
[3] = luciferase reporter signal suppression in cells – H4 neuroglioma cells, luminescence, dose response (AID 1990); assay type: functional, cell-based
[4] = reduction of Shn3 3'UTR-driven luciferase in osteoblasts – cell-based, Clone20 osteoblasts, firefly luciferase, cherry-picked, dose response (AID 624132); assay type: functional;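 further: firefly luciferase luminescence from reporter carrying the Shn3 3'UTR in osteoblasts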
[5] = target: Cytochrome P450 3A4 (Homo sapiens, UniProt P08684);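 further: CYP3A4 tested as one member of a cytochrome P450 panel screen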
[6] = system: H4; experiment: Luminescence Cell-Based Dose Response HTS to Identify Activators of 5'UTR Stem-Loop Driven Prion Protein mRNA Translation in H4 Neuroglioblastoma Cells. [Related pubchem assays: 1829 (Project Summary), 1814 (Primary HTS)]; assay type: functional; details: Homo sapiens
[7] = target: Cytochrome P450 2D6 (Homo sapiens, UniProt P10635);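 further: CYP2D6 member of a cytochrome P450 panel assay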
[8] = target: T1, Cytochrome P450 1A2 (Homo sapiens, UniProt P05177);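 further: PubChem cytochrome P450 panel assay, CYP1A2 panel member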
T1 sequence (P05177 whole entry): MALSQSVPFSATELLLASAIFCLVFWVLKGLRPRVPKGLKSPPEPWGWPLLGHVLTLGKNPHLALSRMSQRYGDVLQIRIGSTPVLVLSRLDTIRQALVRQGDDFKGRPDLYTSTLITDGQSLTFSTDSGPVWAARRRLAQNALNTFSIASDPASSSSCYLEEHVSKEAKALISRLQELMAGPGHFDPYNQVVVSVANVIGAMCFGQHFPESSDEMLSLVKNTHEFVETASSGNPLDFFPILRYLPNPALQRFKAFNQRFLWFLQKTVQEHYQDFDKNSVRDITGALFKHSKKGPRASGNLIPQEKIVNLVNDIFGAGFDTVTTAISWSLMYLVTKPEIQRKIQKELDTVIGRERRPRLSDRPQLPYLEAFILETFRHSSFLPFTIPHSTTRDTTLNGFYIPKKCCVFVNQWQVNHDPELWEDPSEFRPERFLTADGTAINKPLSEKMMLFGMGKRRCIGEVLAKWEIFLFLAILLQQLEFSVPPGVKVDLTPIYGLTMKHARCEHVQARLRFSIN

[9] = Luminescence Cell-Based Dose Confirmation HTS to Identify Activators of 5'UTR Stem-Loop Driven Alpha-Synuclein mRNA Translation in H4 Neuroglioblastoma Cells. [Related pubchem assays: 1829 (Project Summary), 1814 (Primary HTS)]; assay type: functional
[10] = target: Cytochrome P450 2C9 (Homo sapiens, UniProt P11712)
[11] = Luminescence Cell-Based Dose Response HTS to Identify Activators of Luciferase Translation or Activity in H4 […] Cells. [Related pubchem assays: 1829 (Project Summary), 1814 (Primary HTS)]; assay type: functional
[12] = target: T2, Polyadenylate-binding protein 1 (Homo sapiens, UniProt P11940); experiment: MLLE domain peptide-binding blockers, IC50 – biochemical, fluorescence polarization, FITC-PAM2 peptide, dose response (AID 602259); assay type: functional; details: read-out: IC50_Mean
[13] = target: T2, Polyadenylate-binding protein 1; experiment: MLLE binding blockers, Cy5 peptide tracer – biochemical, fluorescence polarization, Cy5-PAM2 peptide, secondary, miRNA deadenylation inhibitor project, dose response (AID 602260); assay type: functional; details: read-out: IC50_Mean
[14] = target: Cytochrome P450 2C19 (Homo sapiens, UniProt P33261); experiment: Cytochrome panel assay with activity outcomes. Panel member name: p450-cyp2c19 Compounds with AC50 equal or less than 10 uM are considered active; assay type: functional; details: read-out: AC50
Cytochrome P450 2C19, sequence (P33261 whole entry): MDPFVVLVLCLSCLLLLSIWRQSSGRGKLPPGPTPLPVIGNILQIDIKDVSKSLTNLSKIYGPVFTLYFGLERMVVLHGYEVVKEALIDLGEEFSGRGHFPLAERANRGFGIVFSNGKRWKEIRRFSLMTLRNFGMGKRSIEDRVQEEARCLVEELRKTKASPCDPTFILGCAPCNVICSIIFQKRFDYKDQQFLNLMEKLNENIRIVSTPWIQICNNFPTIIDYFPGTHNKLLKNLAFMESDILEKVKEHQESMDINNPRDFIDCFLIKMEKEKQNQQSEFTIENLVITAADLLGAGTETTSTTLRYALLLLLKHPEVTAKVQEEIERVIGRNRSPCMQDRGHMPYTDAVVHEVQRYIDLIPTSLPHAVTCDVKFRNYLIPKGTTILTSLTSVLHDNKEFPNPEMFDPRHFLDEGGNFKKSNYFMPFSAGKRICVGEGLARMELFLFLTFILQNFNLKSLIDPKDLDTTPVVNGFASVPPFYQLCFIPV

Cytochrome P450 2D6, sequence (P10635 whole entry): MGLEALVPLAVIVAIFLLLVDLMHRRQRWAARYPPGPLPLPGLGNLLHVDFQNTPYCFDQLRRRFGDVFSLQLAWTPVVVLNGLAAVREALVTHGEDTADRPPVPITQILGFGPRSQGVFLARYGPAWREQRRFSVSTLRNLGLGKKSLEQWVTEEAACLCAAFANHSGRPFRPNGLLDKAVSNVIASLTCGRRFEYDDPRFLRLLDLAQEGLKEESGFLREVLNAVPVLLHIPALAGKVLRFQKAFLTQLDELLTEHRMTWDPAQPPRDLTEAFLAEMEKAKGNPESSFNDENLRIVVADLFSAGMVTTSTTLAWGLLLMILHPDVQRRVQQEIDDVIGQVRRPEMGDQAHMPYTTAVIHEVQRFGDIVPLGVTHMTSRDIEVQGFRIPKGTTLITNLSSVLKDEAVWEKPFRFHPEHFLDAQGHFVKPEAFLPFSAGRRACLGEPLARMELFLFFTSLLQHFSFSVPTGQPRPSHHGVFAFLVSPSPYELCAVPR
Cytochrome P450 3A4, sequence (P08684 whole entry): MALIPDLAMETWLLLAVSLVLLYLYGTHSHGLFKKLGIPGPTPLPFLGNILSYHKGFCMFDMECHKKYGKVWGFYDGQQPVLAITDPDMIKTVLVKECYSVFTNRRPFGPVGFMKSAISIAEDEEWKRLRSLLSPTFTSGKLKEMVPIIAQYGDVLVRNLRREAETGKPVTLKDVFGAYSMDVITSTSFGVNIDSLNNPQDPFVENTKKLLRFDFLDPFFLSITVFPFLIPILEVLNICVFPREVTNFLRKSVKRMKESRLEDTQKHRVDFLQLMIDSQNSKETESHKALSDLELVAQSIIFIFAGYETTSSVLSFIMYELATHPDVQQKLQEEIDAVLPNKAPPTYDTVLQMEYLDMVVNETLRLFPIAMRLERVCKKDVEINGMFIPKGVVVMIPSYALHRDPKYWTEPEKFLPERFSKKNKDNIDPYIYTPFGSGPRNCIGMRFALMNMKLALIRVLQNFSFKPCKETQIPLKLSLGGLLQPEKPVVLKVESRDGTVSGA
Cytochrome P450 2C9, sequence (P11712 whole entry): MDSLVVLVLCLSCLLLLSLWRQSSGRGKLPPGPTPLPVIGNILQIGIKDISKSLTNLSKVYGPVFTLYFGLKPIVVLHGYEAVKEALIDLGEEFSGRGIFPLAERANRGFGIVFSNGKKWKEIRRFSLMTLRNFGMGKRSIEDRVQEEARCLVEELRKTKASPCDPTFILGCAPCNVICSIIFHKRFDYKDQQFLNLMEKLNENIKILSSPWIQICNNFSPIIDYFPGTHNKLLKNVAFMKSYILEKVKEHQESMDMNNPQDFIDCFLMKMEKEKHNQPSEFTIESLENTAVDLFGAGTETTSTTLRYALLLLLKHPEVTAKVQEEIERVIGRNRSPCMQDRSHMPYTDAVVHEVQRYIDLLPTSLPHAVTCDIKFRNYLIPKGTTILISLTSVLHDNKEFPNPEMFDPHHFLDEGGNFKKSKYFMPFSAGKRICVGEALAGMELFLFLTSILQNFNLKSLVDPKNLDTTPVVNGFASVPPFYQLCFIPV
T2 sequence (P11940 whole entry, the tested form may be a part): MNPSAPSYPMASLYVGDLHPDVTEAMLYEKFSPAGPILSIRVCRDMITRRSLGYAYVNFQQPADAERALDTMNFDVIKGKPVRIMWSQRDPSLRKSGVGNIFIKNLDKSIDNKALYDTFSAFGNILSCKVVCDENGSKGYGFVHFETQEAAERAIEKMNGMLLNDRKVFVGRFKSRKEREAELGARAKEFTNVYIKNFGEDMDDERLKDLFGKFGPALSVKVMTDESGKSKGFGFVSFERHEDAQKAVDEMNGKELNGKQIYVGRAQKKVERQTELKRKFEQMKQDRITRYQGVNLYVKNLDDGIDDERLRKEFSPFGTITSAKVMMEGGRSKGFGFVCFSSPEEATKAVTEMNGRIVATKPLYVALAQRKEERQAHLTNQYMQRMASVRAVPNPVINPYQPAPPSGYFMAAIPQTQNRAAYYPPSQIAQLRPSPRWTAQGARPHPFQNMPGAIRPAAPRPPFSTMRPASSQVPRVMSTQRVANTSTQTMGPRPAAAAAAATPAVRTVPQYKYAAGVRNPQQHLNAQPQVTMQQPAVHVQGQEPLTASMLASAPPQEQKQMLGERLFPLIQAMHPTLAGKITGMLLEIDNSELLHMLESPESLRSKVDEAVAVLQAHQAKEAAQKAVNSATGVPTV

| SMILES | EC50 [1] | EC50 [2] | EC50 [3] | AC50 [8] | other results |
| --- | --- | --- | --- | --- | --- |
| Cc1ccc(NC(=O)C2C3CCCC2C3c2ccccc2)c(C)c1 (configuration not stated) | > 120 µM (not active) | > 120 µM (not active) | > 120 µM (not active) | – | – |
| O=C(NCCNc1ccc([N+](=O)[O-])cc1Cl)c1ccccc1F | 76.3 µM (active) | 26.4 µM (active) | > 120 µM (not active) | – | – |
| CCN(CC)C(=O)[C@H]1C[C@H](CC(=O)NC/C=C(\C)CCC=C(C)C)C(=O)N2CCc3c([nH]c4cc(CCC(=O)N(C)C)ccc34)[C@]12C | – | – | – | – | AC50 [4]: 1.37 µM (active) |
| CCOC(=O)c1cnn(-c2ccc(C(C)C)cc2)c1NC(=O)C1CCC1 | – | – | – | 14.1 µM (inconclusive) | AC50 [5]: 39.8 µM (inconclusive); EC50 [6]: > 120 µM (not active); AC50 [7]: 8.91 µM (inconclusive); EC50 [9]: 13.4 µM (active); AC50 [10]: 39.8 µM (inconclusive); EC50 [11]: 18.9 µM (active) |
| CCOC(=O)c1c(NC(=O)C2(C)Cc3ccccc3C(=O)O2)sc2c1CCCC2 (configuration not stated) | – | – | – | – | IC50 [12]: > 66 µM (inactive); IC50 [13]: > 66 µM (inactive) |
| Cc1nn(C(C)(C)C)c(OC(=O)c2ccco2)c1Sc1ccccc1 | – | – | – | 14.1 µM (inconclusive) | AC50 [5]: 39.8 µM (inconclusive) |
| CCOC(=O)c1cc(-c2ccccc2)nc2nc(N3CCCCC3)sc12 | 103 µM (active) | 24.3 µM (active) | 14.8 µM (active) | – | – |
| Cc1onc(-c2c(F)cccc2Cl)c1C(=O)NC(=S)Nc1c(C)n(C)n(-c2ccccc2)c1=O | – | – | – | – | IC50 [12]: > 66 µM (inactive); IC50 [13]: > 66 µM (inactive) |
| CC1CC(C)CN(C(=O)CNS(=O)(=O)c2ccc(Br)s2)C1 (configuration not stated) | – | – | – | 15.8 µM (inconclusive) | AC50 [5]: 11.2 µM (inconclusive); AC50 [10]: 10 µM (inconclusive) |
| Cc1noc(C)c1-c1cncnc1NCCN1CCOCC1 | – | – | – | 31.6 µM (inconclusive) | AC50 [14]: 0.0398 µM (inconclusive) |
| O=c1c(-c2ccccc2)nc2cnc(N3CCOCC3)nc2n1CCc1ccccc1 | – | – | – | 12.6 µM (inconclusive) | AC50 [5]: 31.6 µM (inconclusive) |
| Cc1cc(Cn2cnc3c2C[C@@H](C(=O)O)N(C(=O)C(c2ccccc2)c2ccccc2)C3)ccc1N(C)C | – | – | – | 25.1 µM (inconclusive) | AC50 [7]: 39.8 µM (inconclusive) |
| Cc1ccc(C(=O)Nc2cccc(C(F)(F)F)c2)cc1NC(=O)c1cnnc2ccccc12 | > 120 µM (not active) | 18.9 µM (active) | 13.2 µM (active) | – | – |
| COCCCNC(=O)c1ccc(Cn2c(=O)c3ccccc3n(Cc3ccccc3C#N)c2=O)cc1 | > 120 µM (not active) | > 120 µM (not active) | 20.7 µM (active) | – | – |
| Cc1cc([C@](C)(N)C(=O)O)ccc1P(=O)(O)O | – | – | – | 31.6 µM (inconclusive) | AC50 [7]: 12.6 µM (inconclusive) |
| O=C(c1cnccn1)N1CCC[C@@]2(CCN(C(c3ccccc3)c3ccccc3)C2)C1 | – | – | – | 15.8 µM (inconclusive) | AC50 [5]: 2.51 µM (inconclusive) |
| Cc1ccc(C2=[N+]([O-])C3(CCCCC3=O)N(O)C2(C)C)cc1 (configuration not stated) | 42.6 µM (active) | > 120 µM (not active) | > 120 µM (not active) | – | – |
| Cc1nc2ccccn2c1C(=O)C1=C(O)C(=O)N(CCN(C)C)C1c1ccco1 (configuration not stated) | – | – | – | – | IC50 [12]: > 66 µM (inactive); IC50 [13]: > 66 µM (inactive) |
| COc1ccc(N/N=C2/CCCCC2=O)cc1 | – | – | – | – | IC50 [12]: > 66 µM (inactive); IC50 [13]: > 66 µM (inactive) |
| CC(C)(C)C1CCc2onc(C(=O)Nc3cnn(Cc4ccc(F)cc4)c3)c2C1 (configuration not stated) | > 120 µM (not active) | 23.3 µM (active) | 28.2 µM (active) | – | – |
| COc1ccccc1/C=N/N=C(/Nc1ccc(C)cc1)c1nc2ccccc2s1 | – | – | – | 14.1 µM (inconclusive) | AC50 [5]: 17.8 µM (inconclusive); AC50 [10]: 17.8 µM (inconclusive) |
| O=C1c2c(O)cc(O)cc2O[C@@H](c2ccc(O)c(O)c2)[C@H]1O [(+)-EPITAXIFOLIN] | – | – | – | 15.8 µM (inconclusive) | – |
| O=C(O)CNC(=O)c1ccccc1O [SALICYLURIC ACID] | – | – | – | 5.01 µM (inconclusive) | – |
